These results are taken from US5354747A, “2-, 3-, 4-, 5-, 6-, 7-, 8-, 9- and/or 10-substituted dibenzoxazepine and dibenzthiazepine compounds, pharmaceutical compositions and methods of use” (G. D. Searle & Co., priority 1993, dated 1994).

In assay [1] the test system is Charles River male albino mice. In words: Writhing Assay (PBQ-induced writhing, analgesic activity). The class given is in vivo. As to conditions: Intragastric; for responders at 30 mg/kg / ED50: Mus musculus, po; for responders at 30 mg/kg: 25 min, read-out: number of mice out of nine or ten in which a test compound produced analgesia (converted); for ED50: PBQ writhing, mice, maximum likelihood function, read-out: calculated ED50 value (dose which produced analgesia in 50% of the mice). From the text:
The Writhing Assay is one of the most widely-used experimental procedures for measuring the analgesic activity of different narcotic and nonnarcotic analgesic agents, and involves the continuous, chemically-induced pain of visceral origin to an animal, such as a mouse or rat. [Gyires et al., Arch. int. Pharmacodyn, 267, 131-140 (1984); […] al., Fed. Proc., 15, 494 (1956); Koster et al., Fed. Proc., 18, 412 (1959); and Witken et al., J. Pharmacol. exp. Ther., 133, 400-408 (1961).] Chemicals which may be used to induce this pain include phenylbenzoquinone (PBQ) and acetic acid. As a result of the chemical irritation to the animal, a characteristic stretching and writhing of the animal (dorsiflexion of the animal's back, extension of its hindlimbs and the strong contraction of its abdominal musculature) will generally occur. […] Drugs which reduce the number of writhes of the animal appear to restore the normal nociceptive threshold of the animal. Charles River male albino mice, weighing 20 to 30 grams were used in this assay. Twenty-five minutes after intragastric administration to nine or ten mice of 30 mg per kilogram of body weight of a compound of the present invention ("test compound"), […] of body weight of a 0.025% w/v solution of PBQ was injected intraperitoneally into each mouse. Ten mice which were given saline in place of a test compound of the invention were used as a control group. Five minutes later, each mouse was individually placed into a glass beaker for observation, and the number of writhes occurring during the following ten-minute period was counted. A test compound was considered to have produced analgesia in a mouse if, in accordance with the conditions set forth above, and under the test criteria employed for this assay, after the administration of 30 mg per kilogram of body weight of a compound of the present invention to the mouse, the number of writhes elicited by a mouse injected with PBQ was equal to, or less than, one-half the median number of writhes recorded for the saline-treated control group of mice that day, as described by Taber in "Predictive Value of Analgesic Assays in Mice and Rats," Advances in Biochemical Psychopharmacology, 8, 191 (1974). […] If this initial screening dose of the test compound produced analgesia in seven of nine or ten mice, then the effect of additional doses of the test compound on the writhing response was evaluated, and then the ED50 value (that dose of a compound which produced analgesia in 50% of the mice to which the compound was administered) was generally calculated. A maximum likelihood function was used to determine the ED50 value. (The slopes of the dose-response curves for all test compounds analyzed were compared as described by Tallarida and Murray, Manual of Pharmacologic Calculations, Page 11 (Springer Verlag, New York, 1981)). The results for the particular compounds of the present invention analyzed in this assay, and discussed in the examples identified below which correspond thereto, are presented in Table 1 hereinbelow. The compounds of the present invention which were tested in this assay, and for which results are presented in Table 1, correspond to the particular examples specified in Table 1. The fractions indicate the number of mice out of nine or ten in which a test compound produced analgesia, and the whole numbers are the calculated ED50 values.

Assay [2] relates to prostaglandin E2 -induced contractions of segments of guinea pig ileum. Kind of assay: Prostaglandin (PGE) Antagonism Assay. The assay is classed as cell-based. Conditions: dose ratio of prostaglandin E2 EC50 doses with/without test compound, initial concentration 3 micromolar. The procedure: In order to determine the effectiveness of several of the compounds of the present invention ("test compounds") as prostaglandin E2 antagonists,a prostaglandin antagonism assay was conducted, as described below, to determine the ability of these compounds to inhibit prostaglandin E2 -induced contractions of segments of guinea pig ileum. […] Male albino guinea pigs weighing 200 to 500 grams were sacrificed by cervical dislocation. The ilea were then quickly removed from the guinea pigs and placed in a modified Tyrode solution, a solution which is known to those skilled in the art, containing one-half of the usual amount of magnesium ions. Segments of ileum about 2 cm long were then cut and mounted in a 10-mL tissue bath containing the modified Tyrode solution. The solution was maintained at 37° C. and aerated with a gaseous mixture of 95% oxygen and 5% carbon dioxide. Data for a control prostaglandin E2 dose response curve plotting concentration of prostaglandin E2 versus the intensity of contractions, detected isotonically, was then obtained by experimentally adjusting the dose of the prostaglandin E2 being injected into the tissue bath, in a manner known by those of skill in the art. Solutions or suspensions containing an initial concentration (3 micromolar) of a test compound in modified Tyrode solution ("test solutions/suspensions") were then separately substituted for the control bath solution. Each test solution/suspension was then kept in constant contact with the ileum tissue, except for brief periods to drain the bath in preparation for rinsing with fresh test solution/suspension. A second prostaglandin E2 dose response curve was then generated for prostaglandin E2 in the presence of a test compound. A dose ratio (DR) of EC50 doses was then calculated from the results of each test in a manner known by those of skill in the art. A control dose response curve (DRC) is produced in isolated segments of guinea pig ileum mounted in an automated apparatus with six concentrations of prostaglandin E2. A solution or suspension of test compound is substituted for the control bathing solution and is incubated for thirty minutes. An additional prostaglandin E2 dose response curve is produced in the presence of the test compound. A dose ratio is calculated from the EC50 values obtained from duplicate replications on each concentration of the test compound. […] The results of this prostaglandin antagonism assay are presented in Table 2 below in terms of their dose ratio. The compounds of the present invention which were tested in this assay, and for which results are presented in Table 2, correspond to the particular examples specified in Table 2.

The mark [3] stands for this setting: 30 mg per kilogram of body weight 25 min before PBQ i.p., writhes equal to or less than one-half the control median.

Structures can show the parent of a compound that is named as a salt.

In the case of “8-chloro-10,11-dihydro-10-[[4-(2-pyridinyl)-1-piperazinyl]carbonyl]dibenz[b,f][1,4]oxazepine, monohydrochloride [Example 11]”, in assay [1] (setting [3]), the “number of mice out of nine or ten in which a test compound produced analgesia” value was 1/10. For the compound `O=C(C1CCN(C(=O)N2Cc3ccccc3Oc3ccc(Cl)cc32)CC1)N(CCO)CCO` [Example 3, 1-[(8-chlorodibenz[b,f][1,4]oxazepin-10(11H)yl)carbonyl]-N,N-bis(2-hydroxyethyl)-4-piperidinecarboxamide], in assay [2], the “Dose Ratio” value came out at 1.5. Moreover, the responders at 30 mg/kg in assay [1] (setting [3]) was 20%. For `O=C(N1CCN2CCCCC2C1)N1Cc2ccccc2Oc2ccc(Cl)cc21` (centres unmarked) [Example 5, 8-chloro-10,11-dihydro-10-[(octahydro-2H-pyrido[1,2,-a]pyrazin-2-yl)carbonyl]dibenz[b,f][1,4]oxazepine hydrochloride], the “Dose Ratio” value in assay [2] worked out at 2.4. Besides, in assay [1] (setting [3]), the responders at 30 mg/kg was 40%. For `Cl.O=C(N1CCN(Cc2ccccc2)CC1)N1Cc2ccccc2Oc2ccc(Cl)cc21` [Example 7, 8-chloro-10,11-dihydro-10-[[4-(phenylmethyl)-1-piperazinyl]carbonyl]dibenz[b,f][1,4]oxazepine, monohydrochloride], the “Dose Ratio” value in assay [2] came to 5.1. Besides, the ED50 (usually the dose that gives a 50% effect, or the effect in half of the subjects) in assay [1] is 6.8 mg/kg. For `CCCCN1CCN(C(=O)N2Cc3ccccc3Oc3ccc(Cl)cc32)CC1.Cl` [Example 9, 10-[(4-butyl-1-piperazinyl)carbonyl]-8-chloro-10,11-dihydrodibenz[b,f][1,4]oxazepine, monohydrochloride], in that order: 1.4 and 9.7 mg/kg.

As to `Cl.O=C(N1CCC(N2CCCCC2)CC1)N1Cc2ccccc2Oc2ccc(Cl)cc21` [Example 13, 10-([1,4'-bipiperidin]-1'-ylcarbonyl)-8-chloro-10,11-dihydrodibenz[b,f][1,4]oxazepine, hydrochloride], the “Dose Ratio” value in assay [2] worked out at 1.6. For the same compound, in assay [1] (setting [3]), the responders at 30 mg/kg is 90%.

For the compound `CCCCCCCCCCN1CCN(C(=O)N2Cc3ccccc3Oc3ccc(Cl)cc32)CC1.Cl` [Example 15, 8-chloro-10-[(4-decyl-1-piperazinyl)carbonyl]-10,11-dihydrodibenz[b,f][1,4]oxazepine, monohydrochloride], in assay [2], the “Dose Ratio” value was 2.1. Moreover, the ED50 in assay [1] was 6.4 mg/kg. For `CCCN1CCN(C(=O)N2Cc3ccccc3Oc3ccc(Cl)cc32)CC1.Cl` [Example 17, 8-chloro-10,11-dihydro-10-[(4-propyl-1-piperazinyl)carbonyl]dibenz[b,f][1,4]oxazepine, hydrochloride], in that order: 3.1 and 5.1 mg/kg.

As for `CCN1CCN(C(=O)N2Cc3ccccc3Oc3ccc(Cl)cc32)CC1.Cl` [Example 19, 8-chloro-10-[(4-ethyl-1-piperazinyl)carbonyl]-10,11-dihydrodibenz[b,f][1,4]oxazepine, hydrochloride], the “Dose Ratio” value in assay [2] was determined as 6.0. In addition, the responders at 30 mg/kg in assay [1] (setting [3]) was 22.2%. For `CC(C)(C)OC(=O)N1CCN(C(=O)N2Cc3ccccc3Oc3ccc(Cl)cc32)CC1` [Example 20, 1,1-dimethylethyl 4-[(8-chlorodibenz[b,f][1,4]oxazepin-10(11H)-yl)carbonyl]-1-piperazinecarboxylate], in that order: 8.0 and 40%. For `CC(C)N1CCN(C(=O)N2Cc3ccccc3Oc3ccc(Cl)cc32)CC1.Cl` [Example 22, 8-chloro-10,11-dihydro-10-[[4-(1-methylethyl]-1-piperazinyl]carbonyl]dibenz[b,f][1,4]oxazepine, hydrochloride], in that order: 3.0 and 30%.

For `CCCN1CCCN(C(=O)N2Cc3ccccc3Oc3ccc(Cl)cc32)CC1` [Example 24, monohydrochloride], the “Dose Ratio” value in assay [2] is reported as 11.9. Also, the ED50 in assay [1] is 14.7 mg/kg.

As for `O=C(N1CCNCC1)N1Cc2ccccc2Oc2ccc(Cl)cc21` [Example 25, 8-chloro-10,11-dihydro-10-(1-piperazinylcarbonyl)dibenz[b,f][1,4]oxazepine, monohydrochloride], in assay [2], the “Dose Ratio” value is recorded as 1.6. In addition, the responders at 30 mg/kg in assay [1] (setting [3]) is 50%.

For the compound `O=C(N1CCC(N2CCCC2)CC1)N1Cc2ccccc2Oc2ccc(Cl)cc21` [Example 34, 8-chloro-10,11-dihydro-10-[[4-(1-pyrrolidinyl)-1-piperidinyl]carbonyl]dibenz[b,f][1,4]oxazepine], the responders at 30 mg/kg in assay [1] (setting [3]) is 70%. As to `Cl.O=C(N1CCC(N2CCCC2)CC1)N1Cc2ccccc2Oc2ccc(Cl)cc21` [Example 35, 8-chloro-10,11-dihydro-10-[[4-(1-pyrrolidinyl)-1-piperidinyl]carbonyl]dibenz[b,f][1,4]oxazepine, hydrochloride], the “Dose Ratio” value in assay [2] is 1.0. As for `O=C(c1ccco1)N1CCN(C(=O)N2Cc3ccccc3Oc3ccc(Cl)cc32)CC1` [Example 38, 1-[(8-chlorodibenz[b,f][1,4]oxazepin-10(11H)-yl)carbonyl]-4-(2-furanylcarbonyl)piperazine], the responders at 30 mg/kg in assay [1] (setting [3]) is 10%. The same measure, in the same setting: the same measure for `O=C(N1Cc2ccccc2Oc2ccc(Cl)cc21)N1CCCCC1CCN1CCCC1` (centres unmarked) [Example 49, 8-chloro-10,11-dihydro-10-[[2-[2-(1-pyrrolidinyl)ethyl]-1-piperidinyl]carbonyl]dibenz[b,f][1,4]oxazepine, hydrochloride]: 20%. Consider `CCOC(=O)C1CN(C(=O)N2Cc3ccccc3Oc3ccc(Cl)cc32)CCN1c1ccccc1` (centres unmarked) [Example 50, ethyl 4-[(8-chlorodibenz[b,f][1,4]oxazepin-10(11H)-yl)carbonyl]-1-phenyl-2-piperazinecarboxylate], for which, in assay [2], the “Dose Ratio” value amounted to 2.7. Still for that read-out and setting: the same measure for `O=C(Cc1ccncc1)N1CCN(C(=O)N2Cc3ccccc3Oc3ccc(Cl)cc32)CC1` [Example 79, 1-[(8-Chlorodibenz[b,f][1,4]oxozepin-10(11H)-yl)carbonyl]-4-[1-oxo-2(4-pyridinyl)-ethyl]piperazine, monohydrochloride, monohydrate]: 10. On the same count and under the same terms, for `Cl.O=C(Cc1ccncc1)N1CCCN(C(=O)N2Cc3ccccc3Oc3ccc(Cl)cc32)CC1` [Example 81, 1-[(8-chlorodibenz[b,f][1,4]oxazepin-10(11H)-yl)carbonyl]hexahydro-4-(4-pyridinylacetyl)-1H-1,4-diazepine, monohydrochloride] the value was 32.
